Results reported in US20090247520A1, “INHIBITORS OF ANTIGEN RECEPTOR-INDUCED NF-kappa B ACTIVATION” (The Burnham Institute for Medical Research, priority 2008, published 2009).
“Also recorded” adds a separate entry of the source.

How the values were obtained:
Type in all cases: cell-based
p65-DNA binding activity = p65-DNA binding activity in anti-IgM-stimulated CLL B-cells; settings: human CLL B-cells
Method: (A) Isolated mouse primary splenocytes were cultured with anti-CD3/anti-CD28 (0.3 μg/mL each) or anti-IgM (3 μg/mL) for 48 h, then 1 μCi 3H-Thymidine was added for 12 h and incorporation into DNA was measured, expressing data as fold increase above unstimulated cells (mean±SD; n=3). (B-D) Primary splenocytes were pretreated for 2 h with IKK inhibitor, BMS-335541 (B), PKC inhibitor, Bisindolylmaleimide I (C) or CID-2858522 (D), then stimulated with anti-CD3/anti-CD28 (0.3 μg/mL) or anti-IgM (3 μg/mL) for 48 h. 1 μCi 3H-Thymidine was added for 12 h and incorporation into DNA was measured, expressing data as percent inhibition relative to control cells treated with DMSO (mean±SD; n=3). […] Levels of TRAF1 and β-actin were assessed by immunoblotting, quantified by densitometry and TRAF1 results reported relative to control cells, after normalization for β-actin (mean±SD). […] Then nuclear extracts were prepared and p65-DNA-binding activity was measured (mean±SD; n=3).
NF-κB DNA-binding activity assays. Nuclear extracts were prepared from 10 cm^2 plates of confluent cells using a kit (Active Motif, Carsbad, Calif.). The total protein content of nuclear fractions was quantified by the Bradford method, followed by storage at −80° C. […]

[1] = tested on: γ-TriDAP (NOD1 agonist) stimulated IL-8 production; assay: IL-8 production by MCF7 cells stimulated with γ-TriDAP; settings: listed as CID-2858522
Source text: (§1) FIG. 1 is a flow chart of screening and counter-screenings for selective inhibitors of antigen-receptor induced NF-κB pathway. A total of 114,889 compounds were screened. From a screen of 53,280 commercially available compounds (left column), 519 hits were obtained, of which 248 reconfirmed using the same primary screening assay. […] From these 11 active compounds, one hit, CID-2858522, inhibited PMA/Ionomycin-induced production of cytokine IL-8 by the HEK293 cell line. CID-2858522 was then characterized (right column). PDB was substituted for PMA to confirm suppression of an alternative PKC activator. Pathway selectivity was assessed using panels of cell lines, starting with HEK293 cells in which each of the remaining NF-κB activation pathways was stimulated, showing inhibition only of PMA/Ionomycin-induced NF-κB reporter gene activity (panel 1). […]

[2] = tested on: TNF-α-induced IKK-β phosphorylation; assay: TNF-α-induced IKK-β phosphorylation in HEK293 cells; settings: 4 μM
MDP (NOD2) induced IL-6 = assay: IL-6 in THP.1 cell cultures stimulated with MDP; settings: data not shown
Source text: as §1

For Cc1cc2nc(NCCCO)n(CC(=O)c3cc(C(C)(C)C)c(O)c(C(C)(C)C)c3)c2cc1C [Compound 1, 2-(2-(3-Hydroxypropylamino)-5,6-dimethyl-1H-benzo[d]imidazol-1-yl)-1-(3,5-di-tert-butyl-4-hydroxyphenyl)ethanone], which “suppression of anti-IgM-induced p65-DNA binding activity” value (p65-DNA binding activity) is on record?
The value was “direct suppression”.

What about the “suppression of IL-8 production, γ-TriDAP-stimulated MCF7” value [1] of the same compound?
The value was “failed to inhibit; also recorded: did not suppress”.

What about the “inhibition of TNF-α-induced IKK-β phosphorylation” value [2] of the same compound?
The value was “failed to inhibit”.

And the “inhibition of MDP-induced NF-κB (IL-6 in THP.1)” value (MDP (NOD2) induced IL-6)?
Its value is “failed to inhibit”.
